Test systems include ACHN renal; HOP-92 NSCLC; COLO 205 colon; A549 NSCLC; IGROV1 ovarian; NCI-H226 lung; HCT-116 colon.
Experiment in all cases: NCI-60 cell line screen, 48 h

Here are results for twelve compounds from PubChem BioAssay (NCI).

The structures appear in SMILES notation.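 Where inhibition never reached the appropriate level, the endpoint shown equals the highest concentration tested. Otherwise, values were interpolated linearly from a five-concentration, 48-hour dose response in 96-well plates. The concentration for 50% growth inhibition is given as GI50. At the TGI there is no net growth.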 Bounds are passed on as bounds.

In the case of `Cn1cc(C2=C(c3c4n(c5ccccc35)CCCCC4)C(=O)NC2=O)c2ccccc21`, the GI50 was 6.05 µM with ACHN renal; 1.48 µM in the assay on HOP-92 NSCLC; 4.56 µM in the assay with COLO 205 colon; 3.72 µM in the assay with A549 NSCLC; 3.55 µM in the assay on IGROV1 ovarian; 12 µM with NCI-H226 lung. The GI50 in the assay with HCT-116 colon is 4.21 µM. Further, the TGI in the assay with ACHN renal was more than 25 µM; with HOP-92 NSCLC, more than 25 µM; in the assay on COLO 205 colon it was more than 18.8 µM; with A549 NSCLC, more than 25 µM; in the assay on IGROV1 ovarian it was more than 25 µM; in the assay with NCI-H226 lung it was more than 25 µM. In addition, the TGI with HCT-116 colon was more than 25 µM.

For the compound `O=[N+]([O-])c1ccc2c(c1)/C(=N/N=C1c3ccccc3Cc3ccccc31)c1cc([N+](=O)[O-])cc([N+](=O)[O-])c1-2`, the TGI is 8.79 µM with ACHN renal; 8.61 µM in the assay on HOP-92 NSCLC; 9.9 µM in the assay on COLO 205 colon; 25.3 µM with A549 NSCLC; 3.04 µM with IGROV1 ovarian; 31.5 µM in the assay with NCI-H226 lung. This compound came in with a TGI in the assay with HCT-116 colon of 3.08 µM.

As for `CCC(=O)[C@H](C)[C@@H](OC(=O)[C@H](C)CC)[C@H](C)[C@H]1OC(CC)=C(C)C(=O)[C@@H]1C`, the GI50 in the assay with ACHN renal was 30 µM; in the assay with HOP-92 NSCLC, 23.1 µM; in the assay with COLO 205 colon it was 14.9 µM; with A549 NSCLC, 30.9 µM; with IGROV1 ovarian, 17.1 µM; in the assay on NCI-H226 lung it was 16 µM. The GI50 in the assay on HCT-116 colon was 9.98 µM. The TGI in the assay with ACHN renal is more than 100 µM; with HOP-92 NSCLC, 62.1 µM; in the assay on COLO 205 colon it was 29.3 µM; in the assay with A549 NSCLC, more than 100 µM; in the assay on IGROV1 ovarian it was 46.7 µM; in the assay with NCI-H226 lung it was 31.6 µM. Moreover, the TGI with HCT-116 colon worked out at 72.4 µM.

Turning to `OC1CSSC1Cn1cnc2c(Nc3ccc(OCc4cccc(F)c4)c(Cl)c3)ncnc21` (centres undefined), the GI50 was 1.7 µM in the assay on ACHN renal; 8.97 µM in the assay with HOP-92 NSCLC; 2.83 µM in the assay with COLO 205 colon; 0.742 µM in the assay with A549 NSCLC; 4.46 µM in the assay with IGROV1 ovarian; 3.38 µM in the assay with NCI-H226 lung. Moreover, the GI50 in the assay with HCT-116 colon is 0.687 µM. For the same compound, the TGI in the assay on ACHN renal turned out to be 5.67 µM; with HOP-92 NSCLC, 23 µM; in the assay with COLO 205 colon, 8.69 µM; with A549 NSCLC it was 1.88 µM; in the assay on IGROV1 ovarian, 13.6 µM; in the assay with NCI-H226 lung, 12.8 µM. Also, the TGI in the assay with HCT-116 colon came to 3.84 µM.

`C=CCOc1ccc2c(C)cc(=O)oc2c1C`: the TGI in the assay with ACHN renal, in the assay with HOP-92 NSCLC, in the assay on COLO 205 colon, in the assay on A549 NSCLC, in the assay with IGROV1 ovarian and with NCI-H226 lung was more than 100 µM in each case. Also, the TGI with HCT-116 colon was more than 100 µM.

`NC(N)=NS(=O)(=O)c1ccc(Nc2c3ccccc3nc3c(C(=O)NCCO)cccc23)cc1`: the GI50 in the assay with ACHN renal was 20 µM; in the assay with COLO 205 colon it was 33.6 µM; with A549 NSCLC, 20.1 µM; in the assay with IGROV1 ovarian, 17.8 µM; with HCT-116 colon it was 21.9 µM. In addition, the TGI was 0.747 µM in the assay with HOP-92 NSCLC, 0.322 µM in the assay on NCI-H226 lung and more than 100 µM in the assay on HCT-116 colon.

As to `Fc1ccc(NC(=S)SCc2ccc3c(c2)OCO3)cc1F`, the TGI was 64.4 µM with ACHN renal; 88.9 µM in the assay on HOP-92 NSCLC; 44.9 µM in the assay on COLO 205 colon; 44.6 µM with A549 NSCLC; 39.6 µM with IGROV1 ovarian; more than 100 µM with NCI-H226 lung. The TGI in the assay on HCT-116 colon was more than 100 µM.

Take `Cc1ccc(CN2CCC(C(=O)Nc3ccc(-c4cc5ccccc5[nH]4)cc3)CC2)o1`: the GI50 was more than 100 µM in the assay with ACHN renal; 2.71 µM in the assay with HOP-92 NSCLC; 71 µM with COLO 205 colon; more than 100 µM in the assay on A549 NSCLC; more than 100 µM in the assay with IGROV1 ovarian; more than 100 µM in the assay with NCI-H226 lung. Further, the GI50 in the assay with HCT-116 colon is more than 100 µM. Also, the TGI in the assay with ACHN renal, with HOP-92 NSCLC, with COLO 205 colon, with A549 NSCLC, in the assay with IGROV1 ovarian and in the assay with NCI-H226 lung was more than 100 µM throughout. In the assay on HCT-116 colon, this compound registered a TGI of more than 100 µM.

Take `CN(C)c1ccc(/C=C\C2=[N+](C)c3ccccc3C2(C)C)cc1`: the GI50 was 1.75 µM with ACHN renal; 0.89 µM in the assay with HOP-92 NSCLC; 0.354 µM with COLO 205 colon; 1.06 µM with A549 NSCLC; 0.458 µM in the assay on IGROV1 ovarian; 2.68 µM with NCI-H226 lung. Besides, the GI50 in the assay on HCT-116 colon is 0.32 µM. For the same compound, the TGI in the assay on ACHN renal was more than 36.7 µM; in the assay with HOP-92 NSCLC it was more than 22.8 µM; with COLO 205 colon, 1.65 µM; with A549 NSCLC, more than 62 µM; with IGROV1 ovarian, more than 50.1 µM; with NCI-H226 lung, more than 55.2 µM. Further, the TGI in the assay on HCT-116 colon was more than 32.1 µM.

On to `COC([CH2][Hg][n]1cnc2c1c(=O)n(C)c(=O)n2C)CN1C(=O)c2ccccc2S1(=O)=O` (centres undefined), for which the GI50 with ACHN renal, with HOP-92 NSCLC, in the assay with COLO 205 colon, in the assay on A549 NSCLC, in the assay with IGROV1 ovarian and in the assay on NCI-H226 lung was more than 100 µM throughout. For the same compound, the GI50 in the assay on HCT-116 colon is more than 100 µM. Also, the TGI in the assay on ACHN renal, in the assay on HOP-92 NSCLC, in the assay on COLO 205 colon, with A549 NSCLC, with IGROV1 ovarian and with NCI-H226 lung was more than 100 µM each time. The TGI in the assay on HCT-116 colon was more than 100 µM.

With `Clc1ccccc1C(SCc1ccccc1)SCc1ccccc1`, the TGI in the assay on ACHN renal, with HOP-92 NSCLC, in the assay on COLO 205 colon, in the assay with A549 NSCLC, with IGROV1 ovarian and in the assay on NCI-H226 lung was more than 100 µM each time. In the assay with HCT-116 colon, the TGI is more than 100 µM.

As to `CCN1/C(=C\c2cc[n+](CC)c3ccccc23)C=Cc2ccccc21`, the GI50 with ACHN renal is 1.19 µM; in the assay on HOP-92 NSCLC it was 0.161 µM; in the assay on COLO 205 colon it was 0.102 µM; in the assay on A549 NSCLC, 0.215 µM; in the assay with IGROV1 ovarian, 0.36 µM; in the assay on NCI-H226 lung, 0.301 µM. The GI50 in the assay on HCT-116 colon was 0.124 µM. Also, the TGI in the assay with ACHN renal was determined as 5.88 µM; in the assay with HOP-92 NSCLC, 0.937 µM; in the assay with COLO 205 colon, 0.32 µM; in the assay with A549 NSCLC it was 18.1 µM; in the assay with IGROV1 ovarian it was 12.8 µM; with NCI-H226 lung it was 13.1 µM. The TGI in the assay with HCT-116 colon stood at 10.3 µM.
